{"source": "patent US9999690B2", "about": "“Labeled compounds and methods of imaging, diagnosing cartilage disorders and diseases, and monitoring cartilage health using labeled and unlabeled compounds” (Perosphere Inc., priority 2013, dated 2018)", "key": {"[1]": {"experiment": "Tissue distribution of radioactivity by Quantitative Whole-Body Autoradiography (QWBA), Group 4", "type": "in vivo", "details": "rat, single IV 2 mg/kg", "description": "A study was conducted to determine the pharmacokinetics, rates and routes of excretion with mass baseline and tissue distribution of radioactivity, after a single intravenous dose administration of formula XIII (also referred to as [^14C]DAP) was administered to the rats by tail vein intravenous injection at a\nThe study was conducted on 19 male rats divided into 4 groups. The first group of 6 rats was used for blood collection (Group 1); the second group of 4 rats was used for urine, feces, cage rinses and wipes and carcasses collection (Group 2); the third group of 4 rats was used for expired air collection (Group 3); the fourth group of 5 rats was used for terminal blood/serum and tissue distribution by Quantitative Whole-Body Autoradiography (QWBA) (Group 4).\nFor Group 4, formula XIII (QWBA was run at 1, 8, 12, 24 and 72 hours post dose. After terminal blood collection, each euthanized animal was frozen in a hexane/dry ice bath and embedded in a 2% carboxymethylcellulose matrix according to MPI Research SOP ADME-112. The embedded carcasses were sectioned according to MPI Research SOP ADME-113 on a Leica CM3600 Cyromacrotome set to maintain −10 to −30° C. At least four fortified quality control standards of known radioactive concentration were placed into the frozen block prior to sectioning and used for section thickness quality control. The quality control standards were sectioned under the same conditions as the specimen. The intrasection and intersection variation of collected sections were determined by analyzing the quality control standards. Section variation must be less than 20% for quantitative analysis. Sections that were approximately 40μm thick were taken in the sagittal plane. Appropriate sections selected at various levels of interest in the block were collected to encompass the following tissues, organs, and biological fluids, where possible: adrenal gland, bladder (urinary) and contents (urine), blood (cardiac), bone, bone marrow, brain, eye, fat (brown), fat (white), heart, kidney, large intestine/cecum and contents, liver, lung, muscle, pancreas, prostate, salivary glands, skin, small intestine and contents, spleen, stomach and contents, testes, thymus, thyroid, mesenteric lymph nodes, and epididymis. A set of sections were mounted, exposed to phosphor imaging screens and scanned using the Storm 860 image acquisition system according to MPI Research SOP ADME-112. Quantification, relative to the calibration standards, were performed by image densitometry using MCID™ image analysis software according to MPI Research SOP ADME-114. A standard curve was constructed from the integrated response (MDC/mm2) and the nominal concentrations of the [^14C]Glucose calibration standards. Relative error should be less than 0.5 for each point on the curve. The concentrations of radioactivity were expressed as μCi/g and were converted to μg or ng-equivalents of DAP per gram of sample (μg- or ng-eq/g) using the specific activity of administered [^14C]DAP dose formulation. A lower limit of quantification (LLOQ) was applied to the data. The LLOQ was determined using the radioactive concentration of the lowest calibration standard used to generate a calibration curve divided by the specific activity of the dose formulation (μCi/ug). Artifacts, such as those produced by dislodged contents of the alimentary canal, were excluded from analysis during image analysis."}, "[2]": {"experiment": "In vivo toxicity study, dogs", "details": "dog, read-out: Maximum tolerated dose", "description": "A study was conducted to test the toxicity of labeled formula XIII in rats and dogs. Maximum tolerated doses were 40 mg/kg for rats and 35 mg/kg for dogs."}}, "data": [{"compound": "[2H]C1([2H])N(CCCNC(=O)[C@@H](N)CCCNC(=N)N)C([2H])([2H])C([2H])([2H])N(CCCNC(=O)[C@@H](N)CCCNC(=N)N)C1([2H])[2H]", "note": "[formula XIII]", "values": [{"measurement": "Concentration of Radioactivity in Medulla", "setting": "[1]; 12 Hours", "result": "BLQ (Below limit of quantitation (<172 ng equivalents [^14C]PER977/g))"}, {"measurement": "Concentration of Radioactivity in Small intestine", "setting": "[1]; 12 Hours", "result": "9975 ng Equivalents [^14C]DAP/g"}, {"measurement": "Concentration of Radioactivity in Spinal cord", "setting": "[1]; 12 Hours", "result": "BLQ (Below limit of quantitation (<172 ng equivalents [^14C]PER977/g))"}, {"measurement": "Concentration of Radioactivity in Stomach contents", "setting": "[1]; 12 Hours", "result": "BLQ (Below limit of quantitation (<172 ng equivalents [^14C]PER977/g))"}, {"measurement": "Concentration of Radioactivity in Thymus", "setting": "[1]; 12 Hours", "result": "14584 ng Equivalents [^14C]DAP/g"}, {"measurement": "Concentration of Radioactivity in Urinary bladder", "setting": "[1]; 12 Hours", "result": "1095 ng Equivalents [^14C]DAP/g"}, {"measurement": "Concentration of Radioactivity in Urine", "setting": "[1]; 12 Hours", "result": "5011 ng Equivalents [^14C]DAP/g"}, {"measurement": "Concentration of Radioactivity in Bone marrow", "setting": "[1]; 24 Hours", "result": "1987 ng Equivalents [^14C]DAP/g"}, {"measurement": "Concentration of Radioactivity in Eye (lens)", "setting": "[1]; 24 Hours", "result": "BLQ (Below limit of quantitation (<172 ng equivalents [^14C]PER977/g))"}, {"measurement": "Concentration of Radioactivity in Gastric mucosa", "setting": "[1]; 24 Hours", "result": "1438 ng Equivalents [^14C]DAP/g"}, {"measurement": "Concentration of Radioactivity in Kidney", "setting": "[1]; 24 Hours", "result": "39548 ng Equivalents [^14C]DAP/g"}, {"measurement": "Concentration of Radioactivity in Kidney (cortex)", "setting": "[1]; 24 Hours", "result": "40820 ng Equivalents [^14C]DAP/g"}, {"measurement": "Concentration of Radioactivity in Kidney (medulla)", "setting": "[1]; 24 Hours", "result": "2011 ng Equivalents [^14C]DAP/g"}, {"measurement": "Concentration of Radioactivity in Large intestinal contents", "setting": "[1]; 24 Hours", "result": "1801 ng Equivalents [^14C]DAP/g"}, {"measurement": "Concentration of Radioactivity in Small intestine", "setting": "[1]; 24 Hours", "result": "5090 ng Equivalents [^14C]DAP/g"}, {"measurement": "Concentration of Radioactivity in Spinal cord", "setting": "[1]; 24 Hours", "result": "BLQ (Below limit of quantitation (<172 ng equivalents [^14C]PER977/g))"}, {"measurement": "Concentration of Radioactivity in Stomach contents", "setting": "[1]; 24 Hours", "result": "BLQ (Below limit of quantitation (<172 ng equivalents [^14C]PER977/g))"}, {"measurement": "Concentration of Radioactivity in Thymus", "setting": "[1]; 24 Hours", "result": "11451 ng Equivalents [^14C]DAP/g"}, {"measurement": "Concentration of Radioactivity in Urinary bladder", "setting": "[1]; 24 Hours", "result": "606 ng Equivalents [^14C]DAP/g"}, {"measurement": "Concentration of Radioactivity in Urine", "setting": "[1]; 24 Hours", "result": "4553 ng Equivalents [^14C]DAP/g"}, {"measurement": "Concentration of Radioactivity in Blood", "setting": "[1]; 72 Hours", "result": "BLQ (Below limit of quantitation (<172 ng equivalents [^14C]PER977/g))"}, {"measurement": "Concentration of Radioactivity in Bone", "setting": "[1]; 72 Hours", "result": "BLQ (Below limit of quantitation (<172 ng equivalents [^14C]PER977/g))"}, {"measurement": "Concentration of Radioactivity in Bone marrow", "setting": "[1]; 72 Hours", "result": "841 ng Equivalents [^14C]DAP/g"}, {"measurement": "Concentration of Radioactivity in Cerebellum", "setting": "[1]; 72 Hours", "result": "BLQ (Below limit of quantitation (<172 ng equivalents [^14C]PER977/g))"}, {"measurement": "Concentration of Radioactivity in Epididymis", "setting": "[1]; 72 Hours", "result": "BLQ (Below limit of quantitation (<172 ng equivalents [^14C]PER977/g))"}, {"measurement": "Concentration of Radioactivity in Kidney", "setting": "[1]; 72 Hours", "result": "18515 ng Equivalents [^14C]DAP/g"}, {"measurement": "Concentration of Radioactivity in Kidney (cortex)", "setting": "[1]; 72 Hours", "result": "15748 ng Equivalents [^14C]DAP/g"}, {"measurement": "Concentration of Radioactivity in Kidney (medulla)", "setting": "[1]; 72 Hours", "result": "556 ng Equivalents [^14C]DAP/g"}, {"measurement": "Concentration of Radioactivity in Large intestinal contents", "setting": "[1]; 72 Hours", "result": "824 ng Equivalents [^14C]DAP/g"}, {"measurement": "Concentration of Radioactivity in Medulla", "setting": "[1]; 72 Hours", "result": "BLQ (Below limit of quantitation (<172 ng equivalents [^14C]PER977/g))"}, {"measurement": "Concentration of Radioactivity in Muscle", "setting": "[1]; 72 Hours", "result": "BLQ (Below limit of quantitation (<172 ng equivalents [^14C]PER977/g))"}, {"measurement": "Concentration of Radioactivity in Seminal vesicles", "setting": "[1]; 72 Hours", "result": "BLQ (Below limit of quantitation (<172 ng equivalents [^14C]PER977/g))"}, {"measurement": "Concentration of Radioactivity in Small intestine", "setting": "[1]; 72 Hours", "result": "1597 ng Equivalents [^14C]DAP/g"}, {"measurement": "Concentration of Radioactivity in Spinal cord", "setting": "[1]; 72 Hours", "result": "BLQ (Below limit of quantitation (<172 ng equivalents [^14C]PER977/g))"}, {"measurement": "Concentration of Radioactivity in Stomach contents", "setting": "[1]; 72 Hours", "result": "BLQ (Below limit of quantitation (<172 ng equivalents [^14C]PER977/g))"}, {"measurement": "Concentration of Radioactivity in Testes", "setting": "[1]; 72 Hours", "result": "BLQ (Below limit of quantitation (<172 ng equivalents [^14C]PER977/g))"}, {"measurement": "Concentration of Radioactivity in Thymus", "setting": "[1]; 72 Hours", "result": "8365 ng Equivalents [^14C]DAP/g"}, {"measurement": "Concentration of Radioactivity in Urinary bladder", "setting": "[1]; 72 Hours", "result": "283 ng Equivalents [^14C]DAP/g"}, {"measurement": "Concentration of Radioactivity in Urine", "setting": "[1]; 72 Hours", "result": "3866 ng Equivalents [^14C]DAP/g"}, {"measurement": "MTD", "setting": "[2]", "result": 35, "unit": "mg/kg"}]}]}
